Experimental findings from patent US12233073B2, “Skin care formulations and skin cancer treatment” (Regents of the University of Minnesota, priority 2017, dated 2025) are described below.

For test [1], the target named is T1, wildtype PRPK recombinant GST protein (Homo sapiens, UniProt Q96S44).
T1 sequence (Q96S44 1-253): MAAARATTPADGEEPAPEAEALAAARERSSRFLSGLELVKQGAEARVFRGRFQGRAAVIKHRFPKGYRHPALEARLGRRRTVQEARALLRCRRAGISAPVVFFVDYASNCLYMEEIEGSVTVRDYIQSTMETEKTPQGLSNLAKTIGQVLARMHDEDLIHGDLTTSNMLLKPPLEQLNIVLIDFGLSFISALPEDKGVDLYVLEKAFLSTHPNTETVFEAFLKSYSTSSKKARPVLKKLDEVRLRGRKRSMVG
The experiment in a line: In vitro binding assay, drug-conjugated Sepharose 4B beads with GST-PRPK. The settings on record: pull-down with drug-conjugated Sepharose 4B beads. As to the method:
(§1) The interaction between rocuronium bromide and PRPK, and the inhibition of PRPK phosphorylation by rocuronium bromide was evaluated. In vitro and ex vivo binding assays were conducted using GST-PRPK or A431 cell lysates and rocuronium bromide-conjugated Sepharose 4B beads. FIG. 13A is a photograph illustrating a chromatographic plate showing the interaction and binding of PRPK with rocuronium bromide in A431 cells. FIG. 13B is a photograph illustrating a chromatographic plate showing the interaction and binding of rocuronium bromide with wildtype PRPK recombinant GST protein.
as §1, with “betamethasone 17-valerate” for “rocuronium bromide”, “using recombinant” for “using”, “betamethasone 17-valerate-conjugated” for “rocuronium bromide-conjugated”, “14A” for “13A”, “14B” for “13B”

The subject of test [2] is SSL-induced skin carcinogenesis in SKH-1 hairless mice. The experiment in a line: Chronic SSL-induced skin carcinogenesis in SKH-1 hairless mice (early-stage and late-stage prevention models). As to conditions: for SSL-induced neovascularization in tumor areas: early- and late-stage models (FIGS. 23, 24A, 24B); for SSL-induced skin carcinogenesis: topical cream 0.1% or 1%; for Ki-67 expression / PRPK phosphorylation: skin staining, FIGS. 23, 24A, 24B. It is filed as in vivo, mouse. As to the method: The effectiveness of rocuronium bromide (EXAMPLES 11 and 12) and betamethasone 17-valerate (EXAMPLE 13) in mouse models of chronic sUV-induced skin carcinogenesis was evaluated. Female SKH-1 hairless mice (5 weeks old, Charles River, Burlington, MA) were used. Skin carcinogenesis was induced by SSL-irradiation source lamps. […] For topical treatment to the dorsal mouse skin, cream (oil-in-water emulsions) containing 0.1% or 1% (0.1 or 1 mg in 100 μl) of rocuronium bromide or betamethasone 17-valerate were prepared. The models included early-stage prevention models (EXAMPLE 11) and a late-stage prevention models (EXAMPLES 12 and 13). […] SSL treatment was for 15 weeks and the drug cream was continued for 29 weeks. In the late-stage model, mice received SSL for 15 weeks at which time they began receiving topical application with rocuronium bromide or betamethasone 17-valerate. For the early stage model, SKH-1 hairless mice were divided into groups as follows: Groups 1 and 2 were negative control groups, untreated and treated with only cream vehicle with no SSL exposure; Group 3=1% rocuronium bromide; Group 4=SSL alone without cream; Group 5=SSL with cream only; Group 6=0.1% rocuronium bromidein cream with SSL; Group 7=1% rocuronium bromide in cream with SSL. For the late stage models, groups were as follows: Groups 8 and 9 were negative control groups, untreated and treated with only cream vehicle with no SSL exposure; Group 10=1% rocuronium bromide only; Group 11=1% betamethasone 17-valerate only; Group 12=SSL alone with cream; Group 13=SSL with 0.1% rocuronium bromide; Group 14=1% rocuronium bromide in cream with SSL; Group 15=0.1% betamethasone 17-valerate in cream with SSL; and Group 16=1% […] betamethasone 17-valerate in cream with SSL. An antibiotic ointment was applied to the eyes of each mouse prior to SSL exposure and body weight and tumor volume were measured each week.

Another test concerns IFN-γ, IL-12 and PGE2. Put plainly: Immune system markers (IFN-γ, IL-12, PGE2, T-cell markers) in the SSL-induced prevention models. It counts as in vivo, mouse. As to conditions: for T cell infiltrates in mouse skin: CD3, CD4 markers; for production of IFN-γ in mouse serum: ELISA; for production of IFN-γ in mouse serum / production of IL-12 in mouse serum / production of IL-12 in mouse skin: SSL-induced prevention models; for PGE2 levels in the skin: SSL-exposed skin. An excerpt: Exposure to UV radiation suppresses the immune response and UV-induced immune suppression is a major risk factor for skin cancer. In particular, UV exposure induces the production of Th2-associated cytokines and interferes with antigen presentation to Th1 cells producing IFN-γ. To determine whether rocuronium bromide or betamethasone 17-valerate affects the immune system response, the level of immune system markers, including interferon-γ (IFN-γ), interleukin-12 (IL-12) and prostaglandin E2 (PGE2), in mouse serum and the T-cell markers, CD3 and CD4, were examined. CD3 is associated with the T-cell receptor (TCR) and is essential in signal transduction in T cells following TCR activation. Tumor microenvironment-mediated down-regulation of TCR-associated signaling leads to the inhibition of T cell function and antitumor immunity in the tumor-bearing host. Very few T cells are observed in the epidermis and dermis of solar UV-induced SCCs.
SSL-induced immunosuppressive responses are associated with production of Th2-related cytokines (IL-10) and disturbance of antigen presentation to Th1 cells producing IFN-γ. Therefore, SSL-induced immunosuppression could be prevented by the Th1 cytokine, IFN-γ. An enzyme-linked immunosorbent assay (ELISA) was performed to examine IFN-γ levels in mouse serum. FIG. 25A is a chart comparing the effect of rocuronium bromide treatment on enhancement of IFN-γ production by immune cells in an early-stage SSL-induced prevention model. IL-12 is an immunoregulatory cytokine to reverse UV-induced DNA damage and immunosuppression, and also regulates the function and development of Th1 type cells by stimulating IFN-γ production. Furthermore, treatment with recombinant IL-12 reversed the UV-induced immunosuppression. Additionally, PGE2 plays a key role as an activator of UV-induced immunosuppression through its down-regulation of the levels of IL-12. Thus, the effects of PRPK inhibitors on SSL-induced changes on the immunoregulatory cytokines, IL-12 and PGE2, were investigated.
(In general: In an ELISA, binding on a coated surface is turned into a signal by an enzyme label.)

Take `CCCCC(=O)O[C@]1(C(=O)CO)[C@@H](C)C[C@H]2[C@@H]3CCC4=CC(=O)C=C[C@]4(C)[C@@]3(F)[C@@H](O)C[C@@]21C` [betamethasone 17-valerate]: the “binding to GST-PRPK” value in test [1] is listed as “binds”. Moreover, in test [2], the “SSL-induced neovascularization in tumor areas” value was “inhibited”, the Ki-67 expression result is “inhibited” and the PRPK phosphorylation entry is listed as “inhibited”. In test [2] (late-stage model), the tumor number result is “reduces”, the tumor volume entry is listed as “reduces” and the SSL-induced skin carcinogenesis entry is on record as “reduced”. In the test on IFN-γ, IL-12 and PGE2, the “T cell infiltrates in mouse skin” value was “dense T cell infiltrates”, the “production of IFN-γ in mouse serum” value is given as “increased”, the “PGE2 levels in the skin” value is “decreased” and the “production of IL-12 in mouse serum” value is listed as “increased”. Besides, in the test on IFN-γ, IL-12 and PGE2, the “production of IL-12 in mouse skin” value is “increased”.
Consider `C=CC[N+]1([C@H]2C[C@H]3[C@@H]4CC[C@H]5C[C@H](O)[C@@H](N6CCOCC6)C[C@]5(C)[C@H]4CC[C@]3(C)[C@H]2OC(C)=O)CCCC1` [rocuronium bromide], for which, in test [1], the “binding to GST-PRPK” value is on record as “binds”. In test [2] (FIGS. 20C, 21C), the “levels of COX-2 in SKH-1 hairless mouse skin” value is listed as “suppressed”, the “levels of MMP-9 in SKH-1 hairless mouse skin” value is listed as “suppressed”, the “levels of cyclin D1 in SKH-1 hairless mouse skin” value was “suppressed” and the “levels of phosphorylated PRPK in SKH-1 hairless mouse skin” value was “suppressed”. Also, in test [2], the “SSL-induced neovascularization in tumor areas” value was “inhibited”, the Ki-67 expression result was “inhibited” and the PRPK phosphorylation entry was “inhibited”. For the same molecule, the tumor volume entry in test [2] (early-stage model (FIG. 20A)) is recorded as “decreased”. In addition, the tumor number result in test [2] (early-stage model (FIG. 20B)) is “decreased”. For the same molecule, the SSL-induced skin carcinogenesis entry in test [2] (early-stage model) is recorded as “reduced”. In test [2] (late-stage model), the tumor number result was “decreased”, the tumor volume entry is given as “decreased” and the SSL-induced skin carcinogenesis result is reported as “reduced”. Moreover, in the test with IFN-γ, IL-12 and PGE2, the “T cell infiltrates in mouse skin” value is “dense T cell infiltrates”, the “production of IFN-γ in mouse serum” value is listed as “increased”, the “PGE2 levels in the skin” value is “decreased” and the “production of IL-12 in mouse serum” value is “increased”. Also, the “production of IL-12 in mouse skin” value in the test with IFN-γ, IL-12 and PGE2 was “increased”.
